Source: EP3064205A1, “Therapeutic use of isomeric forms of 2-(4-chlorophenyl)quinolin-4-yl)(piperidin-2-yl)methanol” (Glionova AB, priority 2015, dated 2016)
Read-outs that look alike come from different tables or passages of the source.

Assays:
Test in all cases: 3D clonogenic assay (PDX)
Format in all cases: cell-based, human
[1] = test system: OVXF 1023; settings: OVXF 1023, Ovarian; for IC50: Homo sapiens, OVXF1023
Outline: (§1)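 Using cells isolated from PDX tumors carried in nude mice, inhibition of colony formation in soft agar was measured after 8–13 days of continuous compound exposure (50–0.0015 µM). IC50 values were derived from sigmoidal 4-parameter fits of the automated counts.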

[2] = test system: RXF 616; settings: RXF 616, Renal; for IC50: Homo sapiens
Outline: as §1

[3] = test system: GXA 3023; settings: GXA 3023, Asian Gastric; for IC50: Homo sapiens
Outline: as §1

[4] = test system: LXFA 1041; settings: LXFA 1041, Lung Adeno; for IC50: Homo sapiens
Outline: as §1

[5] = test system: PRXF MRI-H-1579; settings: PRXF MRI-H-1579, Prostate; for IC50: Homo sapiens
Outline: as §1

[6] = test system: SXFS 117; settings: SXFS 117, Sarcoma Soft Tissue; for IC50: Homo sapiens
Outline: as §1

[7] = test system: MAXF 713; settings: MAXF 713, Breast; for IC50: Homo sapiens
Outline: as §1

[8] = test system: OVXF 1544; settings: OVXF 1544, Ovarian; for IC50: Homo sapiens
Outline: as §1

[9] = test system: MEXF 1792; settings: MEXF 1792, Melanoma; for IC50: Homo sapiens
Outline: as §1

[10] = test system: LXFA 983; settings: LXFA 983, Lung Adeno; for IC50: Homo sapiens
Outline: as §1

[11] = test system: MAXF 1322; settings: MAXF 1322, Breast; for IC50: Homo sapiens
Outline: as §1

[12] = test system: CXF 647; settings: CXF 647, Colorectal; for IC50: Homo sapiens
Outline: as §1

In the case of `O[C@H](c1cc(-c2ccc(Cl)cc2)nc2ccccc12)[C@@H]1CCCCN1` [S1, (R)-(2-(4-chlorophenyl)quinolin-4-yl)((S)-piperidin-2-yl)methanol], the IC50 ([1]; read-out: abs. IC50) is reported as 7.49 µM, the IC50 ([1]; read-out: rel. IC50) is reported as 6.84 µM and the “b (bottom plateau of concentration-effect curve)” value [1] is reported as 11. The “t (top plateau of concentration-effect curve)” value [1] was 100, the IC50 ([2]; read-out: abs. IC50) was 8.81 µM and the IC50 ([2]; read-out: rel. IC50) was 8.77 µM. For the same compound, the “b (bottom plateau of concentration-effect curve)” value [2] was 17, the “t (top plateau of concentration-effect curve)” value [2] was 89 and the “b (bottom plateau of concentration-effect curve)” value [3] was 30. For the same compound, the “t (top plateau of concentration-effect curve)” value [3] was 90, the IC50 ([3]; read-out: abs. IC50) was 5.26 µM and the IC50 ([3]; read-out: rel. IC50) was 5.02 µM. For the same compound, the IC50 ([4]; read-out: abs. IC50) was 5.3 µM, the IC50 ([4]; read-out: rel. IC50) was 5.25 µM and the “b (bottom plateau of concentration-effect curve)” value [4] was 10. The “t (top plateau of concentration-effect curve)” value [4] was 95, the IC50 ([5]; read-out: abs. IC50) was 8.94 µM and the IC50 ([5]; read-out: rel. IC50) was 8.76 µM. For the same compound, the “b (bottom plateau of concentration-effect curve)” value [5] was 21, the “t (top plateau of concentration-effect curve)” value [5] was 112 and the IC50 ([6]; read-out: abs. IC50) was 8.55 µM. For the same compound, the IC50 ([6]; read-out: rel. IC50) was 8.58 µM, the “b (bottom plateau of concentration-effect curve)” value [6] was 4 and the “t (top plateau of concentration-effect curve)” value [6] was 91. The IC50 ([7]; read-out: abs. IC50) was 9.16 µM, the IC50 ([7]; read-out: rel. IC50) was 8.6 µM and the “b (bottom plateau of concentration-effect curve)” value [7] was 43. The “t (top plateau of concentration-effect curve)” value [7] was 108, the IC50 ([8]; read-out: abs. IC50) was 13.5 µM and the IC50 ([8]; read-out: rel. IC50) was 12.8 µM. The “b (bottom plateau of concentration-effect curve)” value [8] was 22, the “t (top plateau of concentration-effect curve)” value [8] was 107 and the IC50 ([9]; read-out: abs. IC50) was 6.19 µM. The IC50 ([9]; read-out: rel. IC50) was 6.15 µM, the “b (bottom plateau of concentration-effect curve)” value [9] was 5 and the “t (top plateau of concentration-effect curve)” value [9] was 99. The IC50 ([10]; read-out: abs. IC50) was 4.81 µM, the IC50 ([10]; read-out: rel. IC50) was 4.6 µM and the “b (bottom plateau of concentration-effect curve)” value [10] was 30. The “t (top plateau of concentration-effect curve)” value [10] was 96, the IC50 ([11]; read-out: abs. IC50) was 4.77 µM and the IC50 ([11]; read-out: rel. IC50) was 3.82 µM. The “b (bottom plateau of concentration-effect curve)” value [11] was 21, the “t (top plateau of concentration-effect curve)” value [11] was 93 and the “b (bottom plateau of concentration-effect curve)” value [12] was 20. For the same compound, the “t (top plateau of concentration-effect curve)” value [12] was 97, the IC50 ([12]; read-out: abs. IC50) was 24.2 µM and the IC50 ([12]; read-out: rel. IC50) was 16.5 µM.
